In patent US9796985B2, “Compositions and method for modulating the sensitivity of plants to cytokinin” (Trustees of Dartmouth College, priority 2013, dated 2017):
Where a SMILES comes first, the peptide text is derived from it. The star is where a group is joined. Cbz = O=C(OCc1ccccc1)*

Columns and labels:
[1] = system: proteasome; assay: Role of the proteasome in ARR stability, immunoblot of protoplasts; type: cell-based, Arabidopsis; details: 10 μM MG132, 3 hours
[2] = system: ARR7 and ARR15; details: wild-type plants, one hour treatment with 100 nM t-zeatin, qRT-PCR
Procedure: (§1) Cytokinin Growth and Molecular Response Analyses. Hypocotyl and root growth analyses were performed according to known methods (Argyros, et al. (2008) Plant Cell 20(8):2102-2116) and hypocotyl and root lengths were measured using ImageJ software (version 1.32; National Institutes of Health). Root meristem size was determined via established methods (Perilli & Sabatini (2010) Methods Mol. Biol. 655:177-187). The apical meristem was visualized by bright field microscopy, with tissue sectioning, fixation, and staining performed according to known methods (Chiang, et al. (2012) Plant Physiol. 160(1):332-348). Total RNA isolation, cDNA production, and quantitative RT-PCR (qRT-PCR) were performed via established methods (Argyros, et al. (2008) supra). Transcript abundances were calculated using the comparative CT method, with 13-TUB3 (At5g62700) as the normalized control.
(§2) Plant Growth Conditions and Cytokinin Treatment. Seeds were surface-sterilized and cold-treated for 3 days in the dark at 4° C. to ensure uniform germination before being moved into the light. For molecular and physiological assays, seedlings were grown on medium containing 1× Murashige and Skoog (MS) salts with vitamins (Research Products International Corp.), 1% sucrose, and 0.8% phytoagar (Research Products International Corp.) at 22° C. under continuous white light (50 μE·m^−2·s^−1) unless specified otherwise. […]

[3] = system: dark-grown, wild-type seedlings; details: increasing concentrations of t-zeatin
Procedure: as §1, §2

SMILES: CC(C)C[C@@H](C=O)NC(=O)[C@H](CC(C)C)NC(=O)[C@H](CC(C)C)NC(=O)OCc1ccccc1 [MG132] (Cbz-Leu-Leu-Leu-aldehyde)
- protein level of ARR1 ([1]; protoplasts from ARR1-HA overexpression line): increased
- protein level of ARR12 ([1]; protoplasts from ARR12-Myc overexpression line): increased

SMILES: C/C(=C\CNc1ncnc2[nH]cnc12)CO [t-zeatin, 6-(4-hydroxy-3methylbut-trans-2-enylamino) purine]
- induction of ARR7 and ARR15 expression [2]: two- to four-fold
- hypocotyl elongation [3]: inhibition of hypocotyl elongation
